Assay results: patent US6514538B1, “External preparations for skin whitening” (Shiseido Company, Ltd., priority 1999, dated 2003)

Tested on: skin of an inner lateral part of the upper arm of testees exposed to summer sunlight
Experiment: Whitening effect testing (lotion on sun-exposed skin of testees)
Format: in vivo, human
Conditions: blend ratio 1.0 wt %, applied twice a day for 4 weeks
Description: 66 testees were exposed to summer sunlight for 4 hours (2 hours a day for 2 days) and the skin of an inner lateral part of their upper arm was used as the subject of the test. […] The panel was divided into 11 groups with 6 persons in each group. Testing was conducted using lotion with the following formulas. [table] The water phase and the alcohol phase were prepared separately and then solubilized. The hypochromic effect after the application was evaluated based on the criteria below. ⊚: Very effective or effective on 80% or more of the testees ◯: Very effective or effective on 50% to less than 80% of the testees Δ: Very effective or effective on 30% to less than 50% testees ×: Very effective or effective on less than 30% of the testees Samples were prepared with the blend compositions described in the aforementioned test method, and the drugs listed in Table 2 were used to compare the whitening effect.

Oc1ccc(O)cc1 [Hydroquinone]
Effect (hypochromic effect after the application): Δ (Very effective or effective on 30% to less than 50% testees)
